Results: patent US20170009228A1, “BIOLOGICAL MATERIALS AND THERAPEUTIC USES THEREOF” (IMPERIAL INNOVATIONS LIMITED, priority 2014, published 2017)

What was measured:
[1] = test system: primary human macrophages; assay: Cytokine synthesis in primary human macrophages stimulated with tenascin-C or its domains; format: cell-based
Protocol: Human monocytes were isolated from peripheral blood (London Blood Bank) and macrophages were derived from monocytes after differentiation for 4 days with 100 ng/ml of M-CSF as previously described (Foxwell (1998)).
(§1) Immediately after isolation, RA membrane cells and macrophages were cultured at 1×10^5 cells/well in RPMI 1640 containing 10% (v/v) FBS and 100 U/ml (Units/ml) penicillin/streptomycin in 96-well tissue culture plates for 24 hours before stimulation. Synovial fibroblasts (used only at either passage number 2 or 3) were cultured at 1×10^4 cells/well in DMEM containing 10% (v/v) FBS and 100 U/ml penicillin/streptomycin in 96-well tissue culture plates for 24 hours before stimulation.
(§2) Cells were incubated for 24 hours at 37° C. with the indicated doses of tenascin-C and recombinant tenascin-C fragments (1.0 μM-1.0 nM). Cells were also stimulated where indicated with LPS (1 ng/ml for human macrophages, 10 ng/ml for human fibroblasts, RA membrane cells and HEKs, 100 ng/ml for MEFS and BMDMs and 10 ng/ml for HEKS), PAM3 (10 ng/ml for human macrophages, human fibroblasts, and HEKs, 100 ng/ml for MEFs and BMDMs), murine IL-1 (5 ng/ml for MEFS) and murine TNF-α (100 ng/ml for MEFS). Unless specifically stated otherwise rough LPS was used for in vitro studies.
Where stated, cells were pre-incubated with 10 μg/ml anti-CD14 antibody, 10 μg/ml IL1 receptor antagonist, 10 μg/ml anti-TLR2 antibody, 25 μg/ml anti-TLR4 antibody, 10 or 25 μg/ml isotype control antibody, 25 μg/ml polymyxin B, or 1 μg/ml msbB LPS, for 30 minutes at 37° C. before stimulation. Where stated, recombinant tenascin-C and FBG, and LPS were boiled for 15 minutes before addition to cells
(§3) Supernatants were subsequently examined for the presence of the cytokines TNF-α, IL-6, and IL-8 by enzyme-linked immunosorbent assay (ELISA) according to the manufacturer's instructions. Absorbance was read on a spectrophotometric ELISA plate reader (Labsystems Multiscan Biochromic, Vantaa, Finland) and analyzed using the Ascent software program (Thermo Labsystems, Altrincham, UK).

RA synovial fibroblasts = assay: Cytokine synthesis in RA synovial fibroblasts stimulated with tenascin-C, FBG or LPS; format: cell-based, human; details: RA synovial fibroblasts, 24 h
Excerpt: RA membrane cells (representing a mixed population of all synovial cell types) were isolated from synovial membranes obtained from patients undergoing joint replacement surgery as previously described (Brennan (1989)). RA synovial fibroblasts were isolated from the mixed population of RA membrane cells as previously described (Brennan (1989)). The study was approved by the local Trust ethics committee (Riverside NHS Research Committee), and waste tissue (synovium after joint replacement surgery) was obtained only after receiving signed informed consent from the patient and anonymyzing the tissue to protect patient identity.
as §1, §2, §3

MyD88 [2] = assay: FBG stimulation of RA synovial fibroblasts infected with adenovirus expressing dominant negative MyD88; format: cell-based, human; details: 1 μM FBG
Excerpt: Recombinant, replication-deficient adenoviral vectors encoding wild type MyD88 (AdMyD88wt), dominant-negative forms of MyD88 (AdMyD88dn) and the GFP control (AdGFP) were constructed in-house. A description of the synthesis of these viruses is in Andreakos (2004). All viruses used in this study are E1/E3 deleted, belong to the Ad5 serotype. Viruses were propagated in 293 human embryonic kidney cells, purified by ultracentrifugation through two cesium chloride gradients, and viral titers determined by plaque assay as previously described (Sacre (2007)).
For adenoviral gene transfer experiments, human RA synovial fibroblasts were incubated with adenoviral vectors at a multiplicity of infection of 100, washed after 2 hours, cultured in complete medium for 24 hours, then stimulated for 24 hours, after which time supernatants were collected.
as §3

MyD88 [3] = assay: Cytokine synthesis in embryonic fibroblasts from MyD88 deficient mice; format: cell-based
Protocol: (§4) MEFs express high levels of mRNA of all 9 murine TLRs and are specifically and highly responsive to TLR ligand activation. […] MEFs were isolated from d13 embryos harvested from age-matched, pregnant female wild type, TLR2, TLR4 and null mice (as described in Todaro (1963)). Fibroblasts were cultured at 2×10^4 cells/well in DMEM containing 10% (v/v) FBS and 100 U/ml penicillin/streptomycin in 96-well tissue culture plates for 24 hours before stimulation.
as §2, §3

TLR4 = assay: Cytokine synthesis in embryonic fibroblasts or macrophages from TLR4 deficient mice; format: cell-based
Protocol: as §4
(§5) BMDMs were derived by aspirating the femurs of age matched female wild type, TLR2 and TLR4 null mice as described in Butler (1999)) and culturing the cells for 7 days in DMEM, 20% (v/v) FBS, 10 ml/L (v/v) antibiotic-antimycotic solution PSA, 50 μM β-Mercaptoethanol and 10 ng/ml M-CSF. Macrophages were then cultured at 1×10^5 cells/well in DMEM, 20% (v/v) FBS, 10 ml/L (v/v) antibiotic-antimycotic solution PSA, 50 μM β-Mercaptoethanol in 96-well tissue culture plates for 24 hours before stimulation.
as §2, §3

TLR2 = assay: Cytokine synthesis in embryonic fibroblasts or macrophages from TLR2 deficient mice; format: cell-based
Protocol: as §4, §5, §2, §3

[4] = test system: human dermal fibroblasts (HDF); assay: Cell adhesion to coated FBG, human dermal fibroblasts; format: cell-based; details: coated wells, 45 minutes, crystal violet
Protocol: (§6) (A) The sequence identified to bind integrin ≢vβ3 is shown in white (Yokoyama et al., 2000). Within this sequence two Arginines (shown in black) were identified to be citrullinated. (B) Wells of a 96 well plate were coated with different concentrations of FBG, citrullinated FBG (cFBG), FBG incubated in buffer without Calcium (FBG —Ca^2+), or FBG incubated without PAD (FBG -PAD). As a positive control wells were coated with Fibronectin (FN) (1 ug/ml), and coating with BSA (10 mg/ml) served as negative control. Plates were incubated with human dermal fibroblasts (HDF) or synovial fibroblasts from RA patients (RAF) for 45 minutes and adhesion was measured by determining absorbance of attached cells after staining with crystal violet (0.1%). Data are shown as the mean of at least four independent experiments+s.e.m., *=p<0.05, **=p<0.01.

[5] = test system: synovial fibroblasts from RA patients (RAF); assay: Cell adhesion to coated FBG, RA synovial fibroblasts; format: cell-based, human; details: coated wells, 45 minutes, crystal violet
Protocol: as §6

**Q.** “FBG: recombinant fibrinogen-like globe, 227 amino acid globular domain at the C terminal of tenascin-C” was tested. Which “heat and polymyxin B sensitivity of cytokine stimulation” value ([1]; boiled 15 min, 25 μg/ml polymyxin B pre-incubation) did it give?
**A.** heat sensitive and unaffected by polymyxin B

**Q.** And the “production of TNF-α, IL-6 and IL-8” value ([1]; human macrophages, 24 h, 1.0 μM-1.0 nM)?
**A.** to an equal extent to full-length tenascin-C

**Q.** And the IL-6 synthesis (RA synovial fibroblasts)?
**A.** to an equal extent to full-length tenascin-C

**Q.** And the IL-8 synthesis (RA synovial fibroblasts)?
**A.** did not induce

**Q.** And the “FBG induction of IL-6” value (MyD88 [2])?
**A.** abolished

**Q.** And the cytokine synthesis (MyD88 [3]; MEFs from MyD88 deficient mice, 24 h)?
**A.** does not stimulate cytokine synthesis

**Q.** What about the “responsiveness after re-transfection of wild type MyD88” value (MyD88 [3]; MyD88 deficient MEFs, data not shown) of the same substance?
**A.** restored the responsiveness

**Q.** And the cytokine synthesis (TLR4)?
**A.** does not stimulate cytokine synthesis

**Q.** What about the cytokine synthesis (TLR2) of the same substance?
**A.** unaffected

**Q.** What about the “adhesion of human dermal fibroblasts (HDF)” value [4] of the same substance?
**A.** proadhesive

**Q.** And the “adhesion of synovial fibroblasts from RA joints (RAF)” value [5]?
**A.** proadhesive
